From US7786137B2, “Bicyclic derivatives as modulators of ion channels” (Vertex Pharmaceuticals Incorporated, priority 2005, dated 2010)

target: T1, NaV1.3 (Homo sapiens, UniProt Q9NY46); test: not given; conditions: read-out: TTX IC50; cited from earlier work
Target sequence in this assay (Q9NY46 whole entry, looked up): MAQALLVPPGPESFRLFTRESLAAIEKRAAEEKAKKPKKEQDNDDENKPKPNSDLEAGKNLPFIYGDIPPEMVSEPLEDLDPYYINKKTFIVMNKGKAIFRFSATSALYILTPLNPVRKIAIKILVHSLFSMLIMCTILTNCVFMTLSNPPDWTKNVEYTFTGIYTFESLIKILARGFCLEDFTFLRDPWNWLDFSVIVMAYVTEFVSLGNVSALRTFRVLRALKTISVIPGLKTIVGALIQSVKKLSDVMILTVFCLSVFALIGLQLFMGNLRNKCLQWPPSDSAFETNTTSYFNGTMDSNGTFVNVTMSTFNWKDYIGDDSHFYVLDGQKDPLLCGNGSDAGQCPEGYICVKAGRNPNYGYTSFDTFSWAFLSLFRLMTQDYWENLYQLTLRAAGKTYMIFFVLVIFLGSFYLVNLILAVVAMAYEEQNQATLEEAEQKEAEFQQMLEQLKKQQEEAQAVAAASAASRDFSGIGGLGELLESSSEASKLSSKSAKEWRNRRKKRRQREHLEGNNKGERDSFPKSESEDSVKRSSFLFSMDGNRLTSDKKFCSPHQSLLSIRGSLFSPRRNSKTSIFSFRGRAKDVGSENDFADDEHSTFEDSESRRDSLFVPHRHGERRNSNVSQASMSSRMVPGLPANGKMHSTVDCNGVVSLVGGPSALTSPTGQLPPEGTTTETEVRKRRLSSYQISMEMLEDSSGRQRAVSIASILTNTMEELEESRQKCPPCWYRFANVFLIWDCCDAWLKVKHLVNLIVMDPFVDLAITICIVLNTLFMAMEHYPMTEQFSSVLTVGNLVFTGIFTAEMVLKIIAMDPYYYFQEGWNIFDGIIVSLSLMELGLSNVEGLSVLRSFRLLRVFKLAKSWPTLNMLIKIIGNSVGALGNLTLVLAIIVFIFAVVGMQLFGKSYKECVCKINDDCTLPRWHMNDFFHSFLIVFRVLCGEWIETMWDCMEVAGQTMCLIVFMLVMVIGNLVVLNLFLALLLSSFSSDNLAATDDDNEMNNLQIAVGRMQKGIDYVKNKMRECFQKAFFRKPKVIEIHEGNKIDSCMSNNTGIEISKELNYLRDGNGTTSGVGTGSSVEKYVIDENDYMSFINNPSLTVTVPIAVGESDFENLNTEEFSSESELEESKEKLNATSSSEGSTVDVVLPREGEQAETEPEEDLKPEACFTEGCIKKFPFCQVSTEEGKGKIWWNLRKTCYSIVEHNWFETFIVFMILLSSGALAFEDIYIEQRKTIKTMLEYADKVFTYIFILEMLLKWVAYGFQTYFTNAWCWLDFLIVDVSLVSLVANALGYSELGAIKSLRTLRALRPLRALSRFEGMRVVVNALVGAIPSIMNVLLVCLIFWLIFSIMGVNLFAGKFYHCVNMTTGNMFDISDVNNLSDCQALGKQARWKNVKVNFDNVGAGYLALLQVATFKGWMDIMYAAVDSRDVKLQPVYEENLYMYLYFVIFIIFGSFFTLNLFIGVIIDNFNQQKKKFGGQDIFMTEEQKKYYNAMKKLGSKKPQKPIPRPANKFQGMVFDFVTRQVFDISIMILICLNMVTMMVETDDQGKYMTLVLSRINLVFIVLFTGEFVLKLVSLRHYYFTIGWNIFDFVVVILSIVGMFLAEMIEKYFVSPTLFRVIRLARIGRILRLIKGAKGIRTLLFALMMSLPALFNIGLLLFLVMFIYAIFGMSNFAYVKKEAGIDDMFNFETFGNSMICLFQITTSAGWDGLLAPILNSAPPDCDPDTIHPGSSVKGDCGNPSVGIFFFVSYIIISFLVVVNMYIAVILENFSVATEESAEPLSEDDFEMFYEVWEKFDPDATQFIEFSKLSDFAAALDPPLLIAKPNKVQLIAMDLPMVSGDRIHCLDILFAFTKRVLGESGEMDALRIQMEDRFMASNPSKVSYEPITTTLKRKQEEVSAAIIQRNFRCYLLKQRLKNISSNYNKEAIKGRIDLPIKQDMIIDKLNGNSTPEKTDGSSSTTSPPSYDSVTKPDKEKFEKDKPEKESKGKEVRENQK

SMILES | IC50 [nM]
NC1=N[C@H](O)[C@H]2[C@H]3O[C@]4(O)O[C@@H]([C@@H](O)[C@@]2(N1)[C@@H]4O)[C@]3(O)CO [TTX, tetrodotoxin] | 15

target: NaV1.6 (Homo sapiens, UniProt Q9UQD0); test: not given; conditions: read-out: TTX IC50; cited from earlier work

SMILES | IC50 [nM]
NC1=N[C@H](O)[C@H]2[C@H]3O[C@]4(O)O[C@@H]([C@@H](O)[C@@]2(N1)[C@@H]4O)[C@]3(O)CO [TTX, tetrodotoxin] | 6

target: NaV1.8 (Homo sapiens, UniProt Q9Y5Y9); test: not given; conditions: read-out: TTX IC50; cited from earlier work

SMILES | IC50 [nM]
NC1=N[C@H](O)[C@H]2[C@H]3O[C@]4(O)O[C@@H]([C@@H](O)[C@@]2(N1)[C@@H]4O)[C@]3(O)CO [TTX, tetrodotoxin] | > 50000

target: NaV1.9 (Homo sapiens, UniProt Q9UI33); test: not given; conditions: read-out: TTX IC50; cited from earlier work

SMILES | IC50 [nM]
NC1=N[C@H](O)[C@H]2[C@H]3O[C@]4(O)O[C@@H]([C@@H](O)[C@@]2(N1)[C@@H]4O)[C@]3(O)CO [TTX, tetrodotoxin] | 1000

tested on: not given; test: not given; conditions: neuropathic pain, modest efficacy; cited from earlier work

SMILES | patients in whom it works [%]
NCC1(CC(=O)O)CCCCC1 [Gabapentin] | 60

target: NaV1.1 (Homo sapiens, UniProt P35498); test: not given; conditions: read-out: TTX IC50; cited from earlier work

SMILES | IC50 [nM]
NC1=N[C@H](O)[C@H]2[C@H]3O[C@]4(O)O[C@@H]([C@@H](O)[C@@]2(N1)[C@@H]4O)[C@]3(O)CO [TTX, tetrodotoxin] | 10

target: NaV1.2 (Homo sapiens, UniProt Q99250); test: not given; conditions: read-out: TTX IC50; cited from earlier work
Sequence (Q99250 whole entry, looked up): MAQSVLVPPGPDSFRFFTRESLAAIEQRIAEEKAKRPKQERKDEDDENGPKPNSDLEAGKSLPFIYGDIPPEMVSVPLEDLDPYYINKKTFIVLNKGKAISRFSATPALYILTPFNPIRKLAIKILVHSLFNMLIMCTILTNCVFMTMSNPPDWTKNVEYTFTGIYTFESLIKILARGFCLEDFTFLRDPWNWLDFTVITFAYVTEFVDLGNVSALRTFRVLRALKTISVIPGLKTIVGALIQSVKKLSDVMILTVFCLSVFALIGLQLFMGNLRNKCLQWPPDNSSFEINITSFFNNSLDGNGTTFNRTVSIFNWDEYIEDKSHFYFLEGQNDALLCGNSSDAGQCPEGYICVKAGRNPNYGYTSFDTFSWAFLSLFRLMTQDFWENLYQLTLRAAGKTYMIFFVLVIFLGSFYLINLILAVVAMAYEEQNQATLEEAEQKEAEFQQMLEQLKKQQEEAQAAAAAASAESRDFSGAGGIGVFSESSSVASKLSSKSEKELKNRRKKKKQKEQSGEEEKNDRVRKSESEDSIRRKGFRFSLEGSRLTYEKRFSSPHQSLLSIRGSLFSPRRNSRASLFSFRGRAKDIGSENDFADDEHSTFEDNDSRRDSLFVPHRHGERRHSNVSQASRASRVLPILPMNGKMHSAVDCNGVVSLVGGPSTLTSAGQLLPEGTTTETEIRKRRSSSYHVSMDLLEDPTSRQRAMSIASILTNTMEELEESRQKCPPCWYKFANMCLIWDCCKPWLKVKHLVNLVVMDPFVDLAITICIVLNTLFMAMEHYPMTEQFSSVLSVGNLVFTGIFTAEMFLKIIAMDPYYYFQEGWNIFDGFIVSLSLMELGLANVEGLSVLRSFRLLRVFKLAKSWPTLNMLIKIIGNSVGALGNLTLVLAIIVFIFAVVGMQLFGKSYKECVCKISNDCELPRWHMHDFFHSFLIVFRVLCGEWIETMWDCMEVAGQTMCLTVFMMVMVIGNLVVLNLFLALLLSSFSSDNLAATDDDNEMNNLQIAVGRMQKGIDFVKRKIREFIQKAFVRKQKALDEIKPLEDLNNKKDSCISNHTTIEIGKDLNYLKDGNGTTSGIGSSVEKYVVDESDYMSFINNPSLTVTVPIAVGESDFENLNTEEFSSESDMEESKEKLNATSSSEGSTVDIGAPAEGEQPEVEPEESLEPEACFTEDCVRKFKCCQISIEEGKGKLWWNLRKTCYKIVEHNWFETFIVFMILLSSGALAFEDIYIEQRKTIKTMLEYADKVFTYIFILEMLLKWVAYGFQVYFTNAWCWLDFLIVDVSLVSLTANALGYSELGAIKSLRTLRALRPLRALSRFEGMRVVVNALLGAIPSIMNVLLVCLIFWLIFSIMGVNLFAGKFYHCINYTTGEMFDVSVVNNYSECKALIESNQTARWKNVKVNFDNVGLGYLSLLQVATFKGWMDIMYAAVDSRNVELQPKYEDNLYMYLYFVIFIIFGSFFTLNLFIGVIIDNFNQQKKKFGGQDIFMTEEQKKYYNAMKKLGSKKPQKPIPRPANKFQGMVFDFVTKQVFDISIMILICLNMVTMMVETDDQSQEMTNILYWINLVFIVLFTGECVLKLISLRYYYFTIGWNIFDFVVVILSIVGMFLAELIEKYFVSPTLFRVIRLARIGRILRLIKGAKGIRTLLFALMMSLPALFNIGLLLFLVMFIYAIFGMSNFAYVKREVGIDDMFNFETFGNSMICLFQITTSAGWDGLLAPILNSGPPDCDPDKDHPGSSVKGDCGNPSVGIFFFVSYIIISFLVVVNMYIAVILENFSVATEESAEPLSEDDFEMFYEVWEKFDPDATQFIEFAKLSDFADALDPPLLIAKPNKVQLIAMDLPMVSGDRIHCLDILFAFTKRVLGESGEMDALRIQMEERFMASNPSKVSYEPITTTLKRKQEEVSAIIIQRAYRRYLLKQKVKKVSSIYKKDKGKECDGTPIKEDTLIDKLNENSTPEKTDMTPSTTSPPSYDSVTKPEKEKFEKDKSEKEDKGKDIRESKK

SMILES | IC50 [nM]
NC1=N[C@H](O)[C@H]2[C@H]3O[C@]4(O)O[C@@H]([C@@H](O)[C@@]2(N1)[C@@H]4O)[C@]3(O)CO [TTX, tetrodotoxin] | 10

target: T1, NaV1.3; test: VIPR optical membrane potential assay, NaV1.3 inhibition; assay type: cell-based; set-up: expressed in transfected cells; host or cells: HEK293; conditions: activity against NaV 1.3 channel
Target sequence in this assay (Q9NY46 whole entry): as the sequence (Q9NY46 whole entry, looked up) above

SMILES | IC50 [nM]
C[C@@H](C(=O)N1Cc2ccc(S(=O)(=O)Nc3ncns3)cc2C1)n1ccc2ccccc21 [Compound 164] | < 2000
COc1cccc(NCC(=O)N2CCc3cc(S(=O)(=O)Nc4nccs4)ccc32)c1 [Compound 165] | > 5000
O=C(c1ccc(C(F)(F)F)cc1)N1CCc2cc(S(=O)(=O)Nc3nccs3)ccc21 [Compound 166] | < 2000
O=C(COc1ccc(OC(F)(F)F)cc1)N1CCc2cc(S(=O)(=O)Nc3ncns3)ccc21 [Compound 167] | < 2000
COc1ccc(CC(=O)N2CCc3ccc(S(=O)(=O)Nc4nccs4)cc3C2)cc1 [Compound 168] | > 5000
O=C(CN1CCC(F)(F)C1)N1CCCc2cc(S(=O)(=O)Nc3nccs3)ccc21 [Compound 169] | > 5000
O=C(CNCc1ccncc1)N1CCc2cc(S(=O)(=O)Nc3nccs3)ccc21 [Compound 171] | > 5000
O=C(CCn1ccc2cc(Cl)ccc21)N1CCc2cc(S(=O)(=O)Nc3ncns3)ccc21 [Compound 172] | < 2000
CC(C)(Oc1ccc(Cl)cc1)C(=O)n1ccc2cc(S(=O)(=O)Nc3nccs3)ccc21 [Compound 173] | 2000 to 5000
CC(Oc1cccc(Cl)c1)C(=O)N1CCc2ccc(S(=O)(=O)Nc3nccs3)cc2C1 (stereo not drawn) [Compound 174] | 2000 to 5000
O=C(CN1CCC(F)(F)CC1)N1CCCc2cc(S(=O)(=O)Nc3nccs3)ccc21 [Compound 175] | > 5000
O=C(c1ccccc1C(F)(F)F)n1ccc2cc(S(=O)(=O)Nc3nccs3)ccc21 [Compound 176] | 2000 to 5000
O=C(CCn1ccc2cc(Cl)ccc21)N1Cc2ccc(S(=O)(=O)Nc3nccs3)cc2C1 [Compound 177] | < 2000
COc1cc(C(=O)N2CCc3cc(S(=O)(=O)Nc4nccs4)ccc32)ccc1C [Compound 178] | 2000 to 5000
Cc1ccc(C(=O)N2CCc3cc(S(=O)(=O)Nc4ncns4)ccc32)cc1Cl [Compound 179] | < 2000
O=C(CCCOc1ccc(Cl)cc1Cl)N1CCCc2cc(S(=O)(=O)Nc3nccs3)ccc21 [Compound 180] | < 2000
Cc1ccc(OCC(=O)N2CCc3cc(S(=O)(=O)Nc4nccs4)ccc32)cc1 [Compound 181] | < 2000
O=C(COc1ccc(Cl)cc1Cl)n1ccc2cc(S(=O)(=O)Nc3nccs3)ccc21 [Compound 183] | 2000 to 5000
COc1ccc(NCC(=O)N2CCc3cc(S(=O)(=O)Nc4nccs4)ccc32)cc1F [Compound 184] | > 5000
CC(Oc1ccccc1Cl)C(=O)N1CCc2cc(S(=O)(=O)Nc3ncns3)ccc21 (stereo not drawn) [Compound 185] | < 2000
CC(Oc1ccc(OC(F)(F)F)cc1)C(=O)N1Cc2ccc(S(=O)(=O)Nc3nccs3)cc2C1 (stereo not drawn) [Compound 186] | < 2000
COc1ccc(CCC(=O)n2ccc3cc(S(=O)(=O)Nc4nccs4)ccc32)cc1 [Compound 187] | < 2000

SMILES | IC50 [nM]
O=C(Cc1ccccc1)N1CCc2cc(S(=O)(=O)Nc3nccs3)ccc21 [Compound 188] | < 2000
O=C(CCc1ccccc1)n1ccc2cc(S(=O)(=O)Nc3nccs3)ccc21 [Compound 189] | < 2000
Cc1ccc(OCC(=O)N2Cc3ccc(S(=O)(=O)Nc4nccs4)cc3C2)cc1C [Compound 190] | < 2000
Cc1ccc(C(=O)n2ccc3cc(S(=O)(=O)Nc4nccs4)ccc32)cc1Cl [Compound 191] | > 5000
COc1cccc(CCC(=O)N2CCc3cc(S(=O)(=O)Nc4nccs4)ccc32)c1 [Compound 192] | < 2000
COc1ccc(CC(=O)N2Cc3ccc(S(=O)(=O)Nc4nccs4)cc3C2)cc1 [Compound 193] | 2000 to 5000
O=C(COc1ccnc2c(C(F)(F)F)cccc12)N1CCc2cc(S(=O)(=O)Nc3nccs3)ccc21 [Compound 194] | < 2000
Cc1ccc(F)c(C(=O)n2ccc3cc(S(=O)(=O)Nc4nccs4)ccc32)c1 [Compound 195] | 2000 to 5000
O=C(Cc1ccc(F)cc1F)N1CCc2cc(S(=O)(=O)Nc3nccs3)ccc21 [Compound 196] | < 2000
O=C(CCc1ccccc1)N1CCc2cc(S(=O)(=O)Nc3nccs3)ccc21 [Compound 197] | < 2000
O=C(CNc1cccc(F)c1)N1CCc2cc(S(=O)(=O)Nc3nccs3)ccc21 [Compound 198] | < 2000
O=C(COc1ccccc1)N1Cc2ccc(S(=O)(=O)Nc3nccs3)cc2C1 [Compound 199] | < 2000
O=C(COc1ccc(F)c(Cl)c1)N1Cc2ccc(S(=O)(=O)Nc3ncns3)cc2C1 [Compound 200] | < 2000
CC(C(=O)n1ccc2cc(S(=O)(=O)Nc3nccs3)ccc21)n1ccc2ccccc21 (stereo not drawn) [Compound 201] | > 5000
C[C@H](C(=O)N1CCc2cc(S(=O)(=O)Nc3ncns3)ccc21)n1ccc2ccccc21 [Compound 202] | < 2000
C[C@@H](C(=O)N1Cc2ccc(S(=O)(=O)Nc3ccncn3)cc2C1)n1ccc2c(F)cccc21 [Compound 203] | > 5000
CC(C(=O)N1CCc2cc(S(=O)(=O)Nc3nccs3)ccc21)n1ccc2ccccc21 (stereo not drawn) [Compound 204] | < 2000
O=C(CN1CCCc2cc(Cl)ccc21)N1CCc2cc(S(=O)(=O)Nc3ncns3)ccc21 [Compound 205] | < 2000
CC(C)(C)c1ccc(OCC(=O)N2CCCc3cc(S(=O)(=O)Nc4nccs4)ccc32)cc1 [Compound 206] | < 2000
C[C@H](C(=O)N1Cc2ccc(S(=O)(=O)Nc3ncns3)cc2C1)n1ccc2ccccc21 [Compound 207] | < 2000
Cc1ccnc(NS(=O)(=O)c2ccc3c(c2)CCN3C(=O)CCCOc2ccc(Cl)cc2Cl)n1 [Compound 208] | > 5000
O=C(CCn1ccc2cc(Cl)ccc21)N1CCc2cc(S(=O)(=O)Nc3nccs3)ccc21 [Compound 209] | < 2000
